Data reported in patent publication US4994485A, “Thio compounds having fungicidal activity” (Duphar International Research B.V., priority 1986, dated 1991).

How the values were obtained:
[1] = system: Pyrenophora graminea; assay: In vitro test on activity against Pyrenophora graminea; format: cell-based; conditions: 10 ppm, 48 hours, 20° C., read-out: % growth inhibition of the fungus
Experimental: In vitro test on activity against Pyrenophora graminea.
(§1) The compound to be tested is processed in a culture medium consisting of 1% by weight of glucose, 0.2% by weight of a yeast extract (marmite), 0.5% by weight of a protein (pepton), 2.5% by weight of agar-agar, and 95.8% by weight of water, in petri dishes in concentrations of 3 and 10 ppm. The petri dishes are inoculated with the plant-pathogenic fungus Pyrenophora graminea and then kept at a temperature of 20° C. After 48 hours the growth-inhibiting activity of the compounds is determined visually. For comparison, the known substance (b) (see EXAMPLE XV) is also tested.

[2] = system: Fusarium culmorum; assay: In vitro test on activity against Fusarium culmorum; format: cell-based; conditions: read-out: growth inhibition of the fungus
[3] = system: Rhizoctonia solani; assay: In vitro test on activity against Rhizoctonia solani; format: cell-based; conditions: read-out: growth inhibition of the fungus
Experimental: as §1, with “in petri dishes in concentrations of 3 and 10 ppm.” left out
Compounds according to the invention are tested on Rhizoctonia solani in the same manner as described in EXAMPLE XIX.

[4] = system: Leptosphaeria nodorum; assay: In vitro test on activity against Leptosphaeria nodorum; format: cell-based; conditions: Parastagonospora nodorum, read-out: growth inhibition of the fungus
Experimental: as §1
Compounds according to the invention are tested on i Leptosphaeria nodorum in the same manner as described in EXAMPLE XIX.

[5] = Acute oral toxicity (lethal dose) in male mice; conditions: mouse, in vivo, acute mortality, mg/kg of body weight
Experimental: Toxicity with respect to warm-blooded living beings.
The LD50 is determined by orally administering the substance to be tested to male mice and determining the acute mortality. In Table C below, the LD50 is recorded in mg/kg of body weight.
For comparison, the known compound (b) (see EXAMPLE XV) is also tested.

[6] = system: Pythium splendens; assay: In vitro test on activity against Pythium splendens; format: cell-based; conditions: Globisporangium splendens, read-out: growth inhibition of the fungus
[7] = system: Fusarium culmorum; assay: Protection of seedlings against plant pathogenic seed fungus by seed treatment (wheat); format: in vivo; conditions: wheat seed infested with Fusarium culmorum; 3 g composition (10% by weight in kaolin) per kg of seed; after three weeks, 8°-12° C.; untreated 67
Experimental: Test with respect to the protection of seedlings against a plant pathogenic seed fungus, namely Fusarium culmorum, by means of a seed treatment.
Wheat seed, infested with Fusarium culmorum, is treated with the substance to be tested in the form of a composi tion in a quantity of 3 g per kg of seed. The composition is obtained by pulverising the substance to be tested and then intimately mixing with kaolin in a concentration of 10% by weight. The seed thus treated is sown in a tray containing soil which is placed in a Wisconsin tank with a bottom temperature of 8°-12° C. After three weeks the number of emerged and healthy plants is determined. The emergence of healthy plants from untreated seed serves as control. For comparison, the known substances 2-methylsulphinyl-4-methyl-5-nitrothiazole (a), 2-methylsulphinyl-3-nitrothiophene (b) and 2-ethylsulphinyl-3-nitro-5-acetylthiophene (c) mentioned hereinbefore are also tested. In the examples, the numbers of the compounds refer to the specification.

[8] = system: Pythium spp.; assay: Protection of seedlings against plant-pathogenic soil fungus by seed treatment (beet); format: in vivo; conditions: after 3 weeks, 18°-22° C., untreated 72
Experimental: Test with respect to the protection of seedlings against a plant-pathogenicsoil fungus, namely Pythium spp., by means of a seed treatment.
The compounds to be tested are processed to compositions by pulverising them and then mixing them intimately with kaolin in the desired concentration (see Table B). Beet seed is treated with these compositions in a quantity of 6 g of composition per kg of seed and then sown in trays with soil which was seriously infested with Pythium spp. After 3 weeks in a glass-house at 18°-22° C. and a relative humidity of 70-100%, the percentage of non-emerged and diseased seedlings (damping-off) is determined. The results are recorded in Table B. For comparison, the known substance 2-methylsulphinyl-4-methyl-5-nitrothiazole(a) is also tested.

[9] = system: soil-borne and seed-borne pathogenic micro-organisms; assay: Fungicidal activity in practice (general statement); conditions: in words
[10] = system: warm-blooded living beings; assay: Toxicity with respect to warm-blooded living beings (general statement); conditions: in words

SMILES	inhibition at 10 ppm [1]	inhibition at 30 ppm [2]	inhibition at 30 ppm [3]	inhibition at 30 ppm [4]	LD50 [5]	inhibition at 10 ppm [6]	Percentage of emerged, healthy plants [7]	percentage damping-off ([8]; 600 mg of active substance per kg of seed)	percentage damping-off ([8]; 1200 mg of active substance per kg of seed)	activity [9]	toxicity with respect to warm-blooded living beings [10]
CCC[S+]([O-])c1sc(C#N)c(Cl)c1C#N (centres unmarked) [(33), 2-n-propylsulphinyl-3,5-dicyano-4-chlorothiophene]	83%	≥ 75%	≥ 75%	≥ 85%	246 mg/kg	≥ 95%	–	–	–	–	–
CCCCCC[S+]([O-])c1sc(C#N)c(Cl)c1C#N (centres unmarked) [(34), 2-n-hexylsulphinyl-3,5-dicyano-4-chlorothiophene]	–	≥ 75%	≥ 75%	≥ 85%	–	≥ 95%	–	–	–	–	–
CCCCCCCC[S+]([O-])c1sc(C#N)c(Cl)c1C#N (centres unmarked) [(36), 2-n-octylsulphinyl-3,5-dicyano-4-chlorothiophene]	–	≥ 75%	≥ 75%	≥ 85%	–	≥ 95%	–	–	–	–	–
CCCC[S+]([O-])c1sc(C(C)=O)c(Cl)c1C#N (centres unmarked) [(39), 2-n-butylsulphinyl 3-cyano-4-chloro-5-acetylthiophene]	81%	≥ 75%	≥ 75%	–	–	≥ 95%	–	–	–	–	–
C[S+]([O-])c1sc(C(=O)c2ccc(Cl)cc2)c(Cl)c1C#N (centres unmarked) [(42), 2-methylsulphinyl-3-cyano-4-chloro-5-(4-chlorobenzoyl) thiophene]	–	≥ 75%	≥ 75%	≥ 85%	–	≥ 95%	–	–	–	–	–
CCCC[S+]([O-])c1sc(C#N)c(Cl)c1C#N (centres unmarked) [(43), 2-n-butylsulphinyl-3,5-dicyano-4-chlorothiophene]	72%	≥ 75%	≥ 75%	≥ 85%	246 mg/kg	≥ 95%	–	–	–	–	–
C[S+]([O-])c1sc(C(=O)c2ccc(Cl)cc2)cc1C#N (centres unmarked) [(52), 2-methylsulphinyl-3-cyano-5-(4-chlorobenzoyl)thiophene]	71%	≥ 75%	≥ 75%	–	–	≥ 95%	–	–	–	–	–
CCCC[S+]([O-])c1sc(C#N)cc1C#N (centres unmarked) [(80)]	–	≥ 75%	≥ 75%	–	–	≥ 95%	–	–	–	–	–
C[S+]([O-])c1sc(C#N)c(Sc2ccccc2)c1C#N (centres unmarked) [(85), 2-methylsulphinyl-3,5-dicyano-4-phenylthio-thiophene]	73%	≥ 75%	≥ 75%	≥ 85%	–	≥ 95%	–	–	–	–	–
Cc1nc([S+](C)[O-])sc1[N+](=O)[O-] (centres unmarked) [(a), 2-methylsulphinyl-4-methyl-5-nitrothiazole, reference compound]	–	–	–	–	–	–	68%	57%	45%	insufficiently active	–
CC[S+]([O-])c1sc(C(C)=O)cc1[N+](=O)[O-] (centres unmarked) [(c), 2-ethylsulphinyl-3-nitro-5-acetylthiophene]	–	–	–	–	–	–	74%	–	–	leaves to be desired in practice	undesired toxicity
